In brackets after ≈: the same amount, converted by molar mass.
Key:
Candida parapsilosis [1] = experiment: Antifungal activity against Candida parapsilosis ATCC 22019 (Y-12969) assessed as reduction in fungal growth incubated for 48 hrs by microplate reader analysis; type: functional; settings: Lodderomyces parapsilosis
Candida albicans [2] = experiment: Antifungal activity against Candida albicans ATCC 10231 assessed as reduction in fungal growth incubated for 48 hrs by microplate reader analysis; type: functional
Candida albicans [3] = experiment: Antifungal activity against Candida albicans SC5314 assessed as reduction in fungal growth incubated for 48 hrs by microplate reader analysis; type: functional
Pichia kudriavzevii [4] = experiment: Antifungal activity against Candida krusei ATCC 6258 (Y-7179) assessed as reduction in fungal growth incubated for 48 hrs by microplate reader analysis; type: functional
Candida tropicalis [5] = experiment: Antifungal activity against Candida tropicalis ATCC750 (Y-12699) assessed as reduction in fungal growth incubated for 48 hrs by microplate reader analysis; type: functional
Cryptococcus neoformans [6] = experiment: Antifungal activity against Cryptococcus neoformans H99 assessed as reduction in fungal growth incubated for 48 hrs by microplate reader analysis; type: functional
Aspergillus fumigatus [7] = experiment: Antifungal activity against Aspergillus fumigatus MYA 3627 assessed as reduction in fungal growth incubated for 48 hrs by microplate reader analysis; type: functional
Aspergillus fumigatus [8] = experiment: Antifungal activity against Aspergillus fumigatus NRRL6113 assessed as reduction in fungal growth incubated for 48 hrs by microplate reader analysis; type: functional
Aspergillus fumigatus [9] = experiment: Antifungal activity against Aspergillus fumigatus NRRL5109 assessed as reduction in fungal growth incubated for 48 hrs by microplate reader analysis; type: functional
Aspergillus flavus [10] = experiment: Antifungal activity against Aspergillus flavus NRRL485 assessed as reduction in fungal growth incubated for 48 hrs by microplate reader analysis; type: functional
Aspergillus niger [11] = experiment: Antifungal activity against Aspergillus niger FGSC A732 assessed as reduction in fungal growth incubated for 48 hrs by microplate reader analysis; type: functional
Aspergillus terreus [12] = experiment: Antifungal activity against Aspergillus terreus 191A6 assessed as reduction in fungal growth incubated for 48 hrs by microplate reader analysis; type: functional
Curvularia lunata [13] = experiment: Antifungal activity against Curvularia lunata NRRL6409 assessed as reduction in fungal growth incubated for 48 hrs by microplate reader analysis; type: functional
Rhizopus arrhizus [14] = experiment: Antifungal activity against Rhizopus oryzae FGSC 9543 assessed as reduction in fungal growth incubated for 48 hrs by microplate reader analysis; type: functional
Mucor circinelloides [15] = experiment: Antifungal activity against Mucor circinelloides 235C7 assessed as reduction in fungal growth incubated for 48 hrs by microplate reader analysis; type: functional
Fusarium solani [16] = experiment: Antifungal activity against Fusarium solani 243G2 assessed as reduction in fungal growth incubated for 48 hrs by microplate reader analysis; type: functional
Paecilomyces lilacinus [17] = experiment: Antifungal activity against Paecilomyces lilacinus 165E10 assessed as reduction in fungal growth incubated for 48 hrs by microplate reader analysis; type: functional; settings: Purpureocillium lilacinum
Hamigera insecticola [18] = experiment: Antifungal activity against Hamigera insecticola NRRL35442 assessed as reduction in fungal growth incubated for 48 hrs by microplate reader analysis; type: functional
Candida albicans [19] = experiment: Antifungal activity against Candida albicans SC5314 assessed as reduction in fungal viability incubated for 48 hrs by microplate reader analysis; type: functional
Candida albicans [20] = experiment: Antifungal activity against Candida albicans ATCC 10231 assessed as reduction in fungal viability incubated for 48 hrs by microplate reader analysis; type: functional
Candida parapsilosis [21] = experiment: Antifungal activity against Candida parapsilosis ATCC 22019 (Y-12969) assessed as reduction in fungal viability incubated for 48 hrs by microplate reader analysis; type: functional
Candida tropicalis [22] = experiment: Antifungal activity against Candida tropicalis ATCC750 (Y-12699) assessed as reduction in fungal viability incubated for 48 hrs by microplate reader analysis; type: functional
Pichia kudriavzevii [23] = experiment: Antifungal activity against Candida krusei ATCC 6258 (Y-7179) assessed as reduction in fungal viability incubated for 48 hrs by microplate reader analysis; type: functional
Cryptococcus neoformans [24] = experiment: Antifungal activity against Cryptococcus neoformans H99 assessed as reduction in fungal viability incubated for 48 hrs by microplate reader analysis; type: functional
Aspergillus fumigatus [25] = experiment: Antifungal activity against Aspergillus fumigatus MYA 3627 assessed as reduction in fungal viability incubated for 48 hrs by microplate reader analysis; type: functional
Aspergillus fumigatus [26] = experiment: Antifungal activity against Aspergillus fumigatus NRRL6113 assessed as reduction in fungal viability incubated for 48 hrs by microplate reader analysis; type: functional
Aspergillus fumigatus [27] = experiment: Antifungal activity against Aspergillus fumigatus NRRL5109 assessed as reduction in fungal viability incubated for 48 hrs by microplate reader analysis; type: functional
Aspergillus flavus [28] = experiment: Antifungal activity against Aspergillus flavus NRRL485 assessed as reduction in fungal viability incubated for 48 hrs by microplate reader analysis; type: functional
Aspergillus niger [29] = experiment: Antifungal activity against Aspergillus niger FGSC A732 assessed as reduction in fungal viability incubated for 48 hrs by microplate reader analysis; type: functional
Aspergillus terreus [30] = experiment: Antifungal activity against Aspergillus terreus 191A6 assessed as reduction in fungal viability incubated for 48 hrs by microplate reader analysis; type: functional
Curvularia lunata [31] = experiment: Antifungal activity against Curvularia lunata NRRL6409 assessed as reduction in fungal viability incubated for 48 hrs by microplate reader analysis; type: functional
Rhizopus arrhizus [32] = experiment: Antifungal activity against Rhizopus oryzae FGSC 9543 assessed as reduction in fungal viability incubated for 48 hrs by microplate reader analysis; type: functional
Mucor circinelloides [33] = experiment: Antifungal activity against Mucor circinelloides 235C7 assessed as reduction in fungal viability incubated for 48 hrs by microplate reader analysis; type: functional
Fusarium solani [34] = experiment: Antifungal activity against Fusarium solani 243G2 assessed as reduction in fungal viability incubated for 48 hrs by microplate reader analysis; type: functional
Paecilomyces lilacinus [35] = experiment: Antifungal activity against Paecilomyces lilacinus 165E10 assessed as reduction in fungal viability incubated for 48 hrs by microplate reader analysis; type: functional, Purpureocillium lilacinum
Hamigera insecticola [36] = experiment: Antifungal activity against Hamigera insecticola NRRL35442 assessed as reduction in fungal viability incubated for 48 hrs by microplate reader analysis; type: functional

MIC80 (Candida parapsilosis [1]): 0.6 µM (≈ 0.423 µg/mL)
MIC80 (Candida albicans [2]): 0.06 µM (≈ 0.0423 µg/mL)
MIC80 (Candida albicans [3]): 0.135 µM (≈ 0.0953 µg/mL)
MIC80 (Pichia kudriavzevii [4]): 0.6 µM (≈ 0.423 µg/mL)
MIC80 (Candida tropicalis [5]): 0.6 µM (≈ 0.423 µg/mL)
MIC80 (Cryptococcus neoformans [6]): 0.6 µM (≈ 0.423 µg/mL)
MIC80 (Aspergillus fumigatus [7]): 5 µM (≈ 3.53 µg/mL)
MIC80 (Aspergillus fumigatus [8]): 1.3 µM (≈ 0.917 µg/mL)
MIC80 (Aspergillus fumigatus [9]): 1.3 µM (≈ 0.917 µg/mL)
MIC80 (Aspergillus flavus [10]): 0.2 µM (≈ 0.141 µg/mL)
MIC80 (Aspergillus niger [11]): 2.5 µM (≈ 1.76 µg/mL)
MIC80 (Aspergillus terreus [12]): 0.6 µM (≈ 0.423 µg/mL)
MIC80 (Curvularia lunata [13]): 2.5 µM (≈ 1.76 µg/mL)
MIC80 (Rhizopus arrhizus [14]): 0.6 µM (≈ 0.423 µg/mL)
MIC80 (Mucor circinelloides [15]): 10 µM (≈ 7.06 µg/mL)
MIC80 (Fusarium solani [16]): 2.5 µM (≈ 1.76 µg/mL)
MIC80 (Paecilomyces lilacinus [17]): 2.5 µM (≈ 1.76 µg/mL)
Compound: CCC(C)n1ncn(-c2ccc(N3CCN(c4ccc(OCC5COC(Cn6cncn6)(c6ccc(Cl)cc6Cl)O5)cc4)CC3)cc2)c1=O (centres undefined) [ITRACONAZOLE]
MFC (Candida parapsilosis [1]): 5 µM (≈ 3.53 µg/mL)
MFC (Candida albicans [2]): > 10 µM
MFC (Candida albicans [3]): > 10 µM
MFC (Pichia kudriavzevii [4]): 2.5 µM (≈ 1.76 µg/mL)
MFC (Candida tropicalis [5]): > 10 µM
MFC (Cryptococcus neoformans [6]): > 10 µM
MFC (Aspergillus fumigatus [7]): > 10 µM
MFC (Aspergillus fumigatus [8]): > 10 µM
MFC (Aspergillus fumigatus [9]): 10 µM (≈ 7.06 µg/mL)
MFC (Aspergillus flavus [10]): 0.6 µM (≈ 0.423 µg/mL)
MFC (Aspergillus niger [11]): 5 µM (≈ 3.53 µg/mL)
MFC (Aspergillus terreus [12]): 2.5 µM (≈ 1.76 µg/mL)
MFC (Curvularia lunata [13]): 5 µM (≈ 3.53 µg/mL)
MFC (Rhizopus arrhizus [14]): 0.6 µM (≈ 0.423 µg/mL)
MFC (Mucor circinelloides [15]): > 10 µM
MFC (Fusarium solani [16]): 5 µM (≈ 3.53 µg/mL)
MFC (Paecilomyces lilacinus [17]): 1.3 µM (≈ 0.917 µg/mL)
MFC (Hamigera insecticola [18]): 1.35 µM (≈ 0.953 µg/mL)
MIC80 (Hamigera insecticola [18]): 0.3 µM (≈ 0.212 µg/mL)
MFC<=99.9 (Candida albicans [19]): >10 µM
MFC<=99.9 (Candida albicans [20]): >10 µM
MFC<=99.9 (Candida parapsilosis [21]): 5 µM (≈ 3.53 µg/mL)
MFC<=99.9 (Candida tropicalis [22]): >10 µM
MFC<=99.9 (Pichia kudriavzevii [23]): 2.5 µM (≈ 1.76 µg/mL)
MFC<=99.9 (Cryptococcus neoformans [24]): >10 µM
MFC<=99.9 (Aspergillus fumigatus [25]): >10 µM
MFC<=99.9 (Aspergillus fumigatus [26]): >10 µM
MFC<=99.9 (Aspergillus fumigatus [27]): 10 µM (≈ 7.06 µg/mL)
MFC<=99.9 (Aspergillus flavus [28]): 0.6 µM (≈ 0.423 µg/mL)
MFC<=99.9 (Aspergillus niger [29]): 5 µM (≈ 3.53 µg/mL)
MFC<=99.9 (Aspergillus terreus [30]): 2.5 µM (≈ 1.76 µg/mL)
MFC<=99.9 (Curvularia lunata [31]): 5 µM (≈ 3.53 µg/mL)
MFC<=99.9 (Rhizopus arrhizus [32]): 0.6 µM (≈ 0.423 µg/mL)
MFC<=99.9 (Mucor circinelloides [33]): >10 µM
MFC<=99.9 (Fusarium solani [34]): 5 µM (≈ 3.53 µg/mL)
MFC<=99.9 (Paecilomyces lilacinus [35]): 1.3 µM (≈ 0.917 µg/mL)
MFC<=99.9 (Hamigera insecticola [36]): 1.35 µM (≈ 0.953 µg/mL)

— ChEMBL document CHEMBL5390204, “Persephacin Is a Broad-Spectrum Antifungal Aureobasidin Metabolite That Overcomes Intrinsic Resistance in Aspergillus fumigatus” (J Nat Prod, 2023)
